Data set [1] in a line: Pharmacokinetic analysis after IV or SC administration in male CD1 mice. To be noted: for Tmax / half-life: iv. How it is done:
Pharmacokinetic parameters of the drugs were calculated by methods of model dependence (for data obtained from IV) and model independence (data obtained from SC).

Another data set relates to male C57B1/6J mice. The data set is described as follows: Oral glucose tolerance test in male C57B1/6J mice. The class given is in vivo. As to conditions: 250 μg/kg; for AUC of blood glucose in all four OGTT curve periods (0-480 min) compared with carrier (PBS): P<0.05; for effect on oral glucose tolerance: male C57B1/6J mice. How it is done:
12-16 week-old male C57B1/6J mice (Nanjing University model animal research center) were randomly divided into groups 8 in each group, according to similar blood glucose (assessed by the blood samples obtained from the tail tip). After fasting (for 6 hours), the animals were administrated, and about 4 hours later, initial blood samples (fasting blood glucose level) were taken. Subsequently, the animals were administrated with an oral dose of glucose, and then put back into their cages (t=0). Blood glucose was measured at t=15 minutes, t=30 minutes, t=60 minutes, t=90 minutes and t=120 minutes. And then the animals were administrated with an oral dose of glucose again, and blood glucose was tracked until 8 hours.

A further data set deals with DIO mice. The data set is described as follows: Body weight reduction in DIO (obese) mice. The data set is classed as in vivo. To be noted: 250 μg/kg SC daily, day 11 to day 30, DIO mice. An excerpt: Forty 25-week-old DIO mice (Nanjing University model animal research center) were randomly divided into five groups (compound 4, 5, 6, 7, and normal saline group), 8 in each group, having no difference in the basis weight of each group.

A further data set deals with T1, human GLP-1R (Homo sapiens, UniProt P43220).
T1 construct: expressed in transfected cells
T1 sequence (P43220 24-463): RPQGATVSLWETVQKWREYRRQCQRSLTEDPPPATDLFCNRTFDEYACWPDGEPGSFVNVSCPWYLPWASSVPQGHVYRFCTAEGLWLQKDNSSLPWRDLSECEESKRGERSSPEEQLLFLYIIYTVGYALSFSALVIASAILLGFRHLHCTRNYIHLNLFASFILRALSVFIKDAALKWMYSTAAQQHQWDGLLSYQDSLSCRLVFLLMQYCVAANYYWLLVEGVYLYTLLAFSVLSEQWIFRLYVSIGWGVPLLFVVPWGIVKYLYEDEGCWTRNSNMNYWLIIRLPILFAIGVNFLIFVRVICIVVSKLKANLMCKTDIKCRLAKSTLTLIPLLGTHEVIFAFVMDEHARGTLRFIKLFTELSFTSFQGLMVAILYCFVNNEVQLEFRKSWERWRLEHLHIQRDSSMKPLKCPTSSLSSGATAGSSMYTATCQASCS
The data set is described as follows: In vitro activity on GLP-1R, CRE-luciferase HEK-293 cells. The data set is classed as cell-based. As to conditions: for GLP-1R/GCGR: ratio of EC50 GLP-1R to EC50 GCGR. The method, then:
5000 of HEK-293 cells, which are used in CRE-luciferase system and express human GCGR or GLP-1R stably, were inoculated into 384 well plates according to […] DMEM/10% FBS media/well. […] After incubation, […] of luciferase reagent was added directly to each plate and mixed gently for 2 minutes. The plates were placed into an Elmer Perkin plate reader for reading. Concentration curve of the compound was made by drawing software Prism 5, and the EC50 value was calculated.

This note sets out measurements from US10479819B2 (priority 2014, dated 2019).

Starred links: 1 amine or outer side, 2 acyl side, 3 side chain; linkers in the order of their positions; H or OH if unused. Non-standard residues stand in square brackets, D forms with d. Residues, ends and D or L forms follow the SMILES beside them. Groups on a side chain read outwards from the residue. *: point of attachment. C18 diacid = O=C(O)CCCCCCCCCCCCCCCCC(=O)*; γGlu = O=C(O)[C@H](CCC(=O)[*:2])N[*:1]; PEG2 = NCCOCCOCCC(=O)O; Aib = CC(C)(N)C(=O)O

As for `CCCCCCCCCCCCCCCC(=O)N[C@@H](CCC(=O)NCCOCCOCCC(=O)NCCOCCOCCC(=O)NCCCC[C@H](NC(=O)[C@H](CC(=O)O)NC(=O)[C@H](CO)NC(=O)[C@@H](NC(=O)[C@H](Cc1ccccc1)NC(=O)[C@@H](NC(=O)CNC(=O)[C@H](CCC(N)=O)NC(=O)[C@@H](CO)NC(=O)[C@@H](N)Cc1c[nH]cn1)[C@@H](C)O)[C@@H](C)O)C(=O)N[C@@H](CO)C(=O)N[C@@H](CCCCN)C(=O)N[C@@H](Cc1ccc(O)cc1)C(=O)N[C@@H](CC(C)C)C(=O)N[C@@H](CC(=O)O)C(=O)NC(C)(C)C(=O)N[C@@H](CCCNC(=N)N)C(=O)N[C@@H](CCCNC(=N)N)C(=O)N[C@@H](C)C(=O)N[C@@H](CCC(N)=O)C(=O)N[C@@H](CC(=O)O)C(=O)N[C@@H](Cc1ccccc1)C(=O)N[C@H](C(=O)N[C@@H](CCC(N)=O)C(=O)N[C@@H](Cc1c[nH]c2ccccc12)C(=O)N[C@@H](CC(C)C)C(=O)N[C@@H](CCSC)C(=O)N[C@@H](CC(N)=O)C(=O)N[C@H](C(=O)NCC(=O)NCC(=O)N1CCC[C@H]1C(=O)N[C@@H](CO)C(=O)N[C@@H](CO)C(=O)NCC(=O)N[C@@H](C)C(=O)N1CCC[C@H]1C(=O)N1CCC[C@H]1C(=O)N1CCC[C@H]1C(=O)N[C@@H](CO)C(N)=O)[C@@H](C)O)C(C)C)C(=O)O` [Compound 7], in data set [1] (mouse, in vivo), the clinical adverse effect entry is “no clinical adverse effect”, the time of peak concentration (Tmax) is roughly 12 h and the half-life lay in the range of 4 to 6 h. Further, the peak time result in data set [1] (mouse, in vivo, sc) is recorded as “more than 12 hours”. Besides, in the data set with male C57B1/6J mice, the “AUC of blood glucose in all four OGTT curve periods (0-480 min) compared with carrier (PBS)” value (“AUC … compared with carrier (PBS)” for short) was “significantly decreased” and the “effect on oral glucose tolerance” value was “significantly reduced the oral glucose tolerance”. Also, the weight loss result with DIO mice is on record as “about 20%”. For the same compound, in the data set with DIO mice (P<0.05), the “body weight compared with normal saline group” value is listed as “significantly lower”.

For the compound `CSCC[C@H](NC(=O)[C@H](CC(C)C)NC(=O)[C@H](Cc1c[nH]c2ccccc12)NC(=O)[C@H](CCC(N)=O)NC(=O)[C@@H](NC(=O)[C@H](Cc1ccccc1)NC(=O)[C@H](CC(=O)O)NC(=O)[C@H](CCC(N)=O)NC(=O)[C@H](C)NC(=O)[C@H](CCCNC(=N)N)NC(=O)[C@H](CCCNC(=N)N)NC(=O)C(C)(C)NC(=O)[C@H](CC(=O)O)NC(=O)[C@H](CC(C)C)NC(=O)[C@H](CCCCN)NC(=O)[C@H](CCCCNC(=O)CCOCCOCCNC(=O)CCOCCOCCNC(=O)CCCCCCCCCCCCCCCCC(=O)O)NC(=O)[C@H](CO)NC(=O)[C@H](Cc1ccc(O)cc1)NC(=O)[C@H](CC(=O)O)NC(=O)[C@H](CO)NC(=O)[C@@H](NC(=O)[C@H](Cc1ccccc1)NC(=O)[C@@H](NC(=O)CNC(=O)[C@H](CCC(N)=O)NC(=O)[C@@H](CO)NC(=O)[C@@H](N)Cc1c[nH]cn1)[C@@H](C)O)[C@@H](C)O)C(C)C)C(=O)N[C@@H](CC(N)=O)C(=O)N[C@H](C(=O)NCC(=O)NCC(=O)N1CCC[C@H]1C(=O)N[C@@H](CO)C(=O)N[C@@H](CO)C(=O)NCC(=O)N[C@@H](C)C(=O)N1CCC[C@H]1C(=O)N1CCC[C@H]1C(=O)N1CCC[C@H]1C(=O)N[C@@H](CO)C(N)=O)[C@@H](C)O` [Compound 16], on human GLP-1R, the GLP-1R/GCGR came to 3.

As for `CC(C)C[C@H](NC(=O)[C@H](CC(C)C)NC(=O)[C@H](Cc1c[nH]c2ccccc12)NC(=O)[C@H](CCC(N)=O)NC(=O)[C@@H](NC(=O)[C@H](Cc1ccccc1)NC(=O)[C@H](CC(=O)O)NC(=O)[C@H](CCC(N)=O)NC(=O)[C@H](C)NC(=O)[C@H](CCCNC(=N)N)NC(=O)[C@H](CCCNC(=N)N)NC(=O)[C@H](CCC(=O)O)NC(=O)[C@H](CC(=O)O)NC(=O)[C@H](CC(C)C)NC(=O)[C@H](Cc1ccc(O)cc1)NC(=O)[C@H](CCCCN)NC(=O)[C@H](CO)NC(=O)[C@H](CCCCNC(=O)CCOCCOCCNC(=O)CCOCCOCCNC(=O)CC[C@H](NC(=O)CCCCCCCCCCCCCCCCC(=O)O)C(=O)O)NC(=O)[C@H](CC(=O)O)NC(=O)[C@H](CO)NC(=O)[C@@H](NC(=O)[C@H](Cc1ccccc1)NC(=O)[C@@H](NC(=O)CNC(=O)[C@H](CCC(N)=O)NC(=O)C(C)(C)NC(=O)[C@@H](N)Cc1c[nH]cn1)[C@@H](C)O)[C@@H](C)O)C(C)C)C(=O)N[C@@H](CC(=O)O)C(=O)NCC(=O)NCC(=O)N1CCC[C@H]1C(=O)N[C@@H](CO)C(=O)N[C@@H](CO)C(=O)NCC(=O)N[C@@H](C)C(=O)N1CCC[C@H]1C(=O)N1CCC[C@H]1C(=O)N1CCC[C@H]1C(=O)N[C@@H](CO)C(N)=O` [Compound 20] (H-H[Aib]QGTFTSDK([PEG2-PEG2-γGlu-C18 diacid])SKYLDERRAQDFVQWLLDGGPSSGAPPPS-NH2), the GLP-1R/GCGR at human GLP-1R is listed as 0.18. Also, the clinical adverse effect entry in data set [1] (IV or SC route, male CD1 mice) was “no clinical adverse effect”. In data set [1] (mouse, in vivo), the Tmax was roughly 12 h and the half-life lay in the range of 4 to 6 h. Besides, in the data set on male C57B1/6J mice, the “AUC … compared with carrier (PBS)” value was “significantly decreased” and the “effect on oral glucose tolerance” value is reported as “significantly reduced the oral glucose tolerance”.

As to `CCCCCCCCCCCCCCCC(=O)N[C@@H](CCC(=O)NCCOCCOCCC(=O)NCCOCCOCCC(=O)NCCCC[C@H](NC(=O)[C@H](CC(=O)O)NC(=O)[C@H](CO)NC(=O)[C@@H](NC(=O)[C@H](Cc1ccccc1)NC(=O)[C@@H](NC(=O)CNC(=O)[C@H](CCC(N)=O)NC(=O)C(C)(C)NC(=O)[C@@H](N)Cc1c[nH]cn1)[C@@H](C)O)[C@@H](C)O)C(=O)N[C@@H](CO)C(=O)N[C@@H](CCCCN)C(=O)N[C@@H](Cc1ccc(O)cc1)C(=O)N[C@@H](CC(C)C)C(=O)N[C@@H](CC(=O)O)C(=O)NC(C)(C)C(=O)N[C@@H](CCCNC(=N)N)C(=O)N[C@@H](CCCNC(=N)N)C(=O)N[C@@H](C)C(=O)N[C@@H](CCC(N)=O)C(=O)N[C@@H](CC(=O)O)C(=O)N[C@@H](Cc1ccccc1)C(=O)N[C@H](C(=O)N[C@@H](CCC(N)=O)C(=O)N[C@@H](Cc1c[nH]c2ccccc12)C(=O)N[C@@H](CC(C)C)C(=O)N[C@@H](CC(C)C)C(=O)N[C@@H](CC(=O)O)C(=O)NCC(=O)NCC(=O)N1CCC[C@H]1C(=O)N[C@@H](CO)C(=O)N[C@@H](CO)C(=O)NCC(=O)N[C@@H](C)C(=O)N1CCC[C@H]1C(=O)N1CCC[C@H]1C(=O)N1CCC[C@H]1C(=O)N[C@@H](CO)C(N)=O)C(C)C)C(=O)O` [Compound 21], the GLP-1R/GCGR at human GLP-1R was determined as 0.23. For the same compound, the clinical adverse effect result in data set [1] (IV or SC route, male CD1 mice) is “no clinical adverse effect”. Also, in data set [1] (mouse, in vivo), the Tmax was roughly 12 h and the half-life lay in the range of 4 to 6 h. In the data set on male C57B1/6J mice, the “AUC … compared with carrier (PBS)” value was “significantly decreased” and the “effect on oral glucose tolerance” value is “significantly reduced the oral glucose tolerance”.

Turning to `CC(C)C[C@H](NC(=O)[C@H](CC(C)C)NC(=O)[C@H](Cc1c[nH]c2ccccc12)NC(=O)[C@H](CCC(N)=O)NC(=O)[C@@H](NC(=O)[C@H](Cc1ccccc1)NC(=O)[C@H](CC(=O)O)NC(=O)[C@H](CCC(N)=O)NC(=O)[C@H](C)NC(=O)[C@H](CCCNC(=N)N)NC(=O)[C@H](CCCNC(=N)N)NC(=O)C(C)(C)NC(=O)[C@H](CC(=O)O)NC(=O)[C@H](CC(C)C)NC(=O)[C@H](Cc1ccc(O)cc1)NC(=O)[C@H](CCCCN)NC(=O)[C@H](CO)NC(=O)[C@H](CCCCNC(=O)CCOCCOCCNC(=O)CCOCCOCCNC(=O)CC[C@H](NC(=O)CCCCCCCCCCCCCCCCC(=O)O)C(=O)O)NC(=O)[C@H](CC(=O)O)NC(=O)[C@H](CO)NC(=O)[C@@H](NC(=O)[C@H](Cc1ccccc1)NC(=O)[C@@H](NC(=O)CNC(=O)[C@H](CCC(N)=O)NC(=O)C(C)(C)NC(=O)[C@@H](N)Cc1c[nH]cn1)[C@@H](C)O)[C@@H](C)O)C(C)C)C(=O)N[C@@H](CC(=O)O)C(=O)NCC(=O)NCC(=O)N1CCC[C@H]1C(=O)N[C@@H](CO)C(=O)N[C@@H](CO)C(=O)NCC(=O)N[C@@H](C)C(=O)N1CCC[C@H]1C(=O)N1CCC[C@H]1C(=O)N1CCC[C@H]1C(=O)N[C@@H](CO)C(N)=O` [Compound 22] (H-H[Aib]QGTFTSDK([PEG2-PEG2-γGlu-C18 diacid])SKYLD[Aib]RRAQDFVQWLLDGGPSSGAPPPS-NH2), on human GLP-1R, the EC50 was determined as 0.06 nM and the GLP-1R/GCGR is listed as 0.19. In data set [1] (IV or SC route, male CD1 mice), the clinical adverse effect result is “no clinical adverse effect”. In data set [1] (mouse, in vivo), the Tmax was roughly 12 h and the half-life lay in the range of 4 to 6 h. Moreover, in the data set on male C57B1/6J mice, the “AUC … compared with carrier (PBS)” value was “significantly decreased” and the “effect on oral glucose tolerance” value was “significantly reduced the oral glucose tolerance”.

As to “His-Aib-Gln-Gly-Thr-Phe-Thr-Ser-Asp-Lys(PEG2-PEG2-Glu-CO(CH2)14CH3)-Ser-Lys-Tyr-Leu-Asp-Glu-Arg-Arg-Ala-Gln-Asp-Phe-Val-Gln-Trp-Leu-Leu-Asp-Gly-Gly-Pro-Ser-Ser-Gly-Ala-Pro-Pro-Pro-Ser-NH2 [Compound 19]”, on human GLP-1R, the GLP-1R/GCGR is 0.25. For the same compound, in the data set with male C57B1/6J mice, the “AUC … compared with carrier (PBS)” value was “significantly decreased” and the “effect on oral glucose tolerance” value was “significantly reduced the oral glucose tolerance”.
